Data as given in ChEMBL document CHEMBL3399943, “In vitro and in silico evaluation of twelve newly-synthesized 1-acetamide-5-methoxy-2-oxindoles as 5-Ht₇ receptor ligands” (Bioorg Med Chem Lett, 2015).

Molecular target: 5-hydroxytryptamine receptor 7 (Homo sapiens) (UniProt P34969)
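Further: displacement of bound [3H]-SB269970 at the 5-HT7 receptor (origin unspecified), test concentration 10 µM, 60 min incubation.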

Sequence of 5-hydroxytryptamine receptor 7 (Homo sapiens) (P34969 whole entry): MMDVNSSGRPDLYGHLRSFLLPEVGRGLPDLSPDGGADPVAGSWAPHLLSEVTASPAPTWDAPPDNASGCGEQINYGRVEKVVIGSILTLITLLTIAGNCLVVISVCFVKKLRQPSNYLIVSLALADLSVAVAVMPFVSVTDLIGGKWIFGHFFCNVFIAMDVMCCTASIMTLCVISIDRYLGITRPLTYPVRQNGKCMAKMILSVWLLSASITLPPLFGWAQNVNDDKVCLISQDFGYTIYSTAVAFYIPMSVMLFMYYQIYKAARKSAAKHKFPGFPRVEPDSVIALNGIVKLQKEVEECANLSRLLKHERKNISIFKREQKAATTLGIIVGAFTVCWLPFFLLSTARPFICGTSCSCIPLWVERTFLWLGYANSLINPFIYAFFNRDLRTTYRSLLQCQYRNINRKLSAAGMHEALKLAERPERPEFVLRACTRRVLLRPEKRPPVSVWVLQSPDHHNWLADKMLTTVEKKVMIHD
Description: Displacement of [3H]-SB269970 from 5-HT7 receptor (unknown origin) at 10 uM after 60 mins

Row | SMILES | log(activity)
1 | COc1ccc2c(c1)CC(=O)N2C(C(=O)NC(C)(C)C)c1ccc(Cl)cc1 (configuration not stated) | 1.2
2 | COc1ccc2c(c1)CC(=O)N2C(C(=O)NC(C)(C)C)C(C)C (configuration not stated) | 1.48
3 | COc1ccc2c(c1)CC(=O)N2C(C(=O)Nc1c(C)cccc1C)C(C)C (configuration not stated) | 1.38
4 | COc1ccc2c(c1)CC(=O)N2C(C(=O)Nc1c(C)cccc1C)c1ccc(Cl)cc1 (configuration not stated) | 1.25
5 | COc1ccc2c(c1)CC(=O)N2C(C(=O)Nc1c(C)cccc1C)C(C)(C)C (configuration not stated) | 0.954
6 | COc1ccc2c(c1)CC(=O)N2C(C(=O)NC(C)(C)C)C(C)(C)C (configuration not stated) | 1.15

The remaining lines, values ahead:

Row | log(activity) | SMILES
7 | 1 | COc1ccc2c(c1)CC(=O)N2C(C(=O)NC1CCCCC1)c1ccccc1 (configuration not stated)
8 | 1.2 | COc1ccc2c(c1)CC(=O)N2C(C(=O)Nc1c(C)cccc1C)c1ccccc1 (configuration not stated)
9 | 1.3 | COc1ccc2c(c1)CC(=O)N2C(C(=O)NC1CCCCC1)c1ccc(Cl)cc1 (configuration not stated)
10 | 1.04 | COc1ccc2c(c1)CC(=O)N2C(C(=O)NC1CCCCC1)C(C)(C)C (configuration not stated)
11 | 1.2 | COc1ccc2c(c1)CC(=O)N2C(C(=O)NC1CCCCC1)C(C)C (configuration not stated)
12 | 1.18 | COc1ccc2c(c1)CC(=O)N2C(C(=O)NC(C)(C)C)c1ccccc1 (configuration not stated)
